Experimental data: article PMC8804615, “Characterization and comparison of recombinant full‐length ursine and human sex hormone‐binding globulin” (FEBS Open Bio, 2021)

B1: recombinant full-length human sex hormone-binding globulin with a C-terminal FLAG tag (natural protein, UniProt P04278-1 30-402, looked up)
chain: LRPVLPTQSAHDPPAVHLSNGPGQEPIAVMTFDLTKITKTSSSFEVRTWDPEGVIFYGDTNPKDDWFMLGLRDGRPEIQLHNHWAQLTVGAGPRLDDGRWHQVEVKMEGDSVLLEVDGEEVLRLRQVSGPLTSKRHPIMRIALGGLLFPASNLRLPLVPALDGCLRRDSWLDKQAEISASAPTSLRSCDVESNPGIFLPPGTQAEFNLRDIPQPHAEPWAFSLDLGLKQAAGSGHLLALGTPENPSWLSLHLQDQKVVLSSGSGPGLDLPLVLGLPLQLKLSMSRVVLSQGSKMKALALPPLGLAPLLNLWAKPQGRLFLGALPGEDSSTSFCLNGLWAQGQRLDVDQALNRSHEIWTHSCPQSPGNGTDASH
modifications: glycosylated (insect cell glycans); disulfide Cys164-Cys188 verified by MALDI-ToF MS
notes: precursor of 402 residues expressed with its native signal peptide (29 residues, [residues removed]), which is cleaved on secretion; a second N-terminus one residue shorter (RPVLPTQ...) was also seen by MS. numbers count on: the mature protein; cDNA amplified from human liver total RNA; also called human SHBG; hSHBG; not shown: FLAG, C-terminal, kept
B2: native human serum SHBG (natural protein, UniProt P04278-1 30-402, looked up)
chain: B1 chain
notes: also called native serum SHBG; SHBG present in human serum

What was measured:
[1] = target: recombinant full-length ursine sex hormone-binding globulin with a C-terminal FLAG tag (Ursus arctos (brown bear)); assay: SEC-MALS; WYATT 30S5 SEC column, 20 mM Tris-HCl, 250 mM NaCl (for the ursine measurements), 1 mM CaCl2, 1 uM DHT, pH 8.0; about 10 ug SHBG injected; dimer
ursine SHBG (uSHBG) = target: T1, ursine SHBG (uSHBG) (Ursus arctos, UniProt Z9D432XYQ2); assay: competition with [3H]DHT, dextran-coated charcoal separation; type: binding; details: ~6 nM [3H]DHT; data not shown
T1 construct: homodimer ~93 kDa, glycosylated; 402 aa precursor
T1 sequence (Z9D432XYQ2 27-402 limits assumed): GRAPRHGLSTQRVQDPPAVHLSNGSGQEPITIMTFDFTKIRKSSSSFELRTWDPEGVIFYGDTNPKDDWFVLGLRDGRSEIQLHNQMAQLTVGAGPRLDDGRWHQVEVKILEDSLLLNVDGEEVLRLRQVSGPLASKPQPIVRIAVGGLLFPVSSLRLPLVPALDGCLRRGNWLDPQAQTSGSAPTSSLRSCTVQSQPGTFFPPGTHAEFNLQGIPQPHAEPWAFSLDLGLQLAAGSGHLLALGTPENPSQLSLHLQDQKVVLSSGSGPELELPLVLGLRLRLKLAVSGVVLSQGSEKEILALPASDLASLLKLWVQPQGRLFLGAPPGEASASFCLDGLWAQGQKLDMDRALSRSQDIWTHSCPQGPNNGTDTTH

human SHBG (hSHBG) = target: T2, human SHBG (hSHBG) (Homo sapiens, UniProt P04278); assay: as above; type: binding; details: ~6 nM [3H]DHT; data not shown
T2 construct: homodimer ~94 kDa, glycosylated
T2 sequence (P04278 30-402): B1 chain

[2] = target: the molecule itself; assay: SEC-MALS; WYATT 30S5 SEC column, 20 mM Tris-HCl, 150 mM NaCl, 1 mM CaCl2, 1 uM DHT, pH 8.0; about 10 ug SHBG injected; dimer
[3] = target: the molecule itself; assay: SEC-MALS; native human serum SHBG; WYATT 30S5 SEC column, 20 mM Tris-HCl, 150 mM NaCl, 1 mM CaCl2, 1 uM DHT, pH 8.0; dimer

| Molecule | RBA (DHT = 100%) (ursine SHBG (uSHBG)) [%] | RBA (DHT = 100%) (human SHBG (hSHBG)) [%] | also measured |
| --- | --- | --- | --- |
| recombinant full-length ursine sex hormone-binding globulin with a C-terminal FLAG tag (natural protein) |  |  | stoichiometry N [1]: 2 |
| C[C@]12C[C@H](O)[C@H]3[C@@H](CCC4=CC(=O)CC[C@@]43C)[C@@H]1CC[C@@H]2C(=O)CO [corticosterone] | < 1 | < 1 |  |
| C[C@]12CC[C@H]3[C@@H](CCC4=CC(=O)CC[C@@]43C)[C@@H]1CC[C@@H]2C(=O)CO [deoxycorticosterone] |  | < 1 |  |
| C[C@]12CCC(=O)C=C1CC[C@@H]1[C@@H]2CC[C@@]2(C)[C@H]1CC[C@]2(O)C(=O)CO [11‐deoxycortisol] | < 1 | < 1 |  |
| C[C@]12CC[C@H](O)CC1=CC[C@@H]1[C@@H]2CC[C@]2(C)C(=O)CC[C@@H]12 [dehydroepiandrosterone] | < 1 | < 1 |  |
| C[C@]12CCC(=O)C=C1CC[C@@H]1[C@@H]2CC[C@]2(C)C(=O)CC[C@@H]12 [androstenedione] | < 1 | < 1 |  |
| CC(=O)[C@H]1CC[C@H]2[C@@H]3CCC4=CC(=O)CC[C@]4(C)[C@H]3CC[C@]12C [progesterone] | < 1 | < 1 |  |
| B1 |  |  | stoichiometry N [2]: 2 |
| B2 |  |  | stoichiometry N [3]: 2 |
